What was measured:
Assay in all cases: relative viability (nuclei count vs DMSO), 5 days (fraction); higher = more cells survive
Linsitinib + Foretinib = compound: C[C@]1(O)C[C@@H](c2nc(-c3ccc4ccc(-c5ccccc5)nc4c3)c3c(N)nccn32)C1 [Linsitinib] + COc1cc2c(Oc3ccc(NC(=O)C4(C(=O)Nc5ccc(F)cc5)CC4)cc3F)ccnc2cc1OCCCN1CCOCC1 [Foretinib] (partner 0.25 µM)
In short: (§1)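 A single step with final 0.05% Triton X-100, 1% formaldehyde and 1 ug/ml Hoechst fixed the cells and stained nuclei 5 days after treatment. Lung cancer cell lines in 1536-well plates had been treated by pin tool the day after seeding with one drug alone or a fixed anchor-drug dose plus five library-drug doses (not always all listed) in √10 steps, and nuclei were counted on 4× images. Relative viability is the ratio of nuclei in treated wells to nuclei in vehicle wells, taken as the median of duplicate plates.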

Linsitinib + AZD7762 = compound: C[C@]1(O)C[C@@H](c2nc(-c3ccc4ccc(-c5ccccc5)nc4c3)c3c(N)nccn32)C1 [Linsitinib] + NC(=O)Nc1cc(-c2cccc(F)c2)sc1C(=O)N[C@H]1CCCNC1 [AZD7762] (partner 0.2 µM)
In short: as §1

Ispinesib + Phenformin = compound: Cc1ccc(C(=O)N(CCCN)[C@@H](c2nc3cc(Cl)ccc3c(=O)n2Cc2ccccc2)C(C)C)cc1 [Ispinesib] + N=C(N)NC(=N)NCCc1ccccc1 [Phenformin] (partner 250 µM)
In short: as §1

Cell Line	relative viability (Linsitinib + Foretinib; first compound 0.01 µM)	relative viability (Linsitinib + Foretinib; first compound 0.03162 µM)	relative viability (Linsitinib + Foretinib; first compound 0.1 µM)	relative viability (Linsitinib + Foretinib; first compound 0.3162 µM)	relative viability (Linsitinib + Foretinib; first compound 1 µM)	relative viability (Linsitinib + AZD7762; first compound 0.03162 µM)	relative viability (Linsitinib + AZD7762; first compound 0.1 µM)	relative viability (Linsitinib + AZD7762; first compound 0.3162 µM)	relative viability (Linsitinib + AZD7762; first compound 1 µM)	relative viability (Ispinesib + Phenformin; first compound 0.001 µM)	relative viability (Ispinesib + Phenformin; first compound 0.003162 µM)	relative viability (Ispinesib + Phenformin; first compound 0.01 µM)	relative viability (Ispinesib + Phenformin; first compound 0.03162 µM)	relative viability (Ispinesib + Phenformin; first compound 0.1 µM)	relative viability (Linsitinib + AZD7762; first compound 0.01 µM)
HCC-78	0.545	0.567	0.471	0.44	0.39	0.56	0.415	0.666	0.472	0.738	0.896	0.743	0.51	0.543	
HCC-366	0.95	0.996	0.907	0.932	0.956	0.228	0.301	0.361	0.12	0.635	0.633	0.657	0.692	0.0242	0.261
HCC-827	1.07	1.1	1.02		0.966	0.223	0.207		0.221	0.424	0.432	0.457	0.332	0.257	0.151
HOP-62	1.09	1.05	1.06		1.16	0.577	0.769		0.298	0.774	0.728	0.709	0.632	0.225	0.583
LC-2-ad	0.983	0.979	0.858	0.738	0.671	0.816	0.814	0.805	0.54	0.646	0.638	0.611	0.285	0.207	0.862
LCLC-97TM1	0.971	0.95	0.879	0.832	0.823	0.271	0.317	0.162	0.271	0.356	0.435	0.486	0.336	0.129	0.299
